Laboratory results: paper PMC8212739 (Clinical and Translational Science, 2021)

Tests used:
in vitro [1] = conditions: human, primary human hepatocytes (PHHs) in 2D sandwich cultures
CYP3A4 [2] = test: in vitro; conditions: human, primary human hepatocytes (PHHs) cultured as 3D spheroids
PHHs in spheroids [3] = test: Albumin production, hepatotoxicant sensitivity, spheroids; assay type: cell-based; conditions: Homo sapiens, 48 h, read-out: EC50, albumin secretion
in vitro [4] = conditions: human, primary human hepatocytes (PHHs) cultured as 3D spheroids
PHHs in spheroids [5] = test: LDH production, hepatotoxicant sensitivity, spheroids; assay type: cell-based; conditions: Homo sapiens, 48 h, read-out: EC50, LDH production
[6] = tested on: PHHs in sandwich cultures; test: Albumin production, hepatotoxicant sensitivity, sandwich cultures; assay type: cell-based; conditions: Homo sapiens, 48 h, read-out: EC50, albumin secretion
PHHs in liver MPS [7] = test: LDH production, hepatotoxicant sensitivity, liver MPS; assay type: cell-based; conditions: Homo sapiens, 48 h, read-out: EC50, LDH production
CYP3A4 [8] = test: in vitro; conditions: human, primary human hepatocytes (PHHs) cultured in liver MPS
PHHs in liver MPS [9] = test: Albumin production, hepatotoxicant sensitivity, liver MPS; assay type: cell-based; conditions: Homo sapiens, 48 h, read-out: EC50, albumin secretion
CYP3A4 [10] = test: in vitro; conditions: human, primary human hepatocytes (PHHs) in 2D sandwich cultures
[11] = tested on: PHHs in sandwich cultures; conditions: sandwich cultures vs liver MPS
[12] = tested on: PHHs in sandwich cultures; test: LDH production, hepatotoxicant sensitivity, sandwich cultures; assay type: cell-based; conditions: Homo sapiens, 48 h, read-out: EC50, LDH production
PHHs in spheroids [13] = conditions: spheroids vs liver MPS
PHHs in the liver MPS = test: Drug metabolism and phase II metabolites in the liver MPS
[14] = Stability of glucuronidated diclofenac in maintenance medium at 37°C; assay type: physicochemical; conditions: 50 µM
[15] = cited from earlier work

`CC/C(=C(\c1ccccc1)c1ccc(OCCN(C)C)cc1)c1ccccc1` [Tamoxifen, tamoxifen] showed an EC50 at 2 days (in vitro [1]) of 23.8 µM.

`Cc1c(C)c2c(c(C)c1O)CCC(C)(COc1ccc(CC3SC(=O)NC3=O)cc1)O2` (stereo not drawn) [Troglitazone, troglitazone] gave an EC50 at 48 h (CYP3A4 [2]) of […], an EC50 (PHHs in spheroids [3]) of 51.9 µM and an EC50 at 2 days (in vitro [4]) of 67.1 µM. The EC50 (PHHs in spheroids [5]) was 94.2 µM, the EC50 [6] was 2.6 µM and the EC50 (PHHs in liver MPS [7]) was 407 µM. It also gave an EC50 at 48 h (CYP3A4 [8]) of […], an EC50 (PHHs in liver MPS [9]) of 34.6 µM and an EC50 at 2 days (in vitro [1]) of 35.1 µM. For the same compound, the EC50 at 48 h (CYP3A4 [10]) was […], the “R, Spearman correlation of CYP3A4 response relative to liver MPS” value [11] was 0.77 and the EC50 [12] was 77.7 µM. The “R, Spearman correlation of CYP3A4 response relative to liver MPS” value (PHHs in spheroids [13]) was 0.80 and the “Extent of metabolism of parent in liver MPS medium” value (PHHs in the liver MPS; 50 and 100 µM, 48 h of incubation) was “almost completely metabolized”.

Compound `C[C@H]1O[C@@H](O[C@H]2[C@@H](O)C[C@H](O[C@H]3[C@@H](O)C[C@H](O[C@H]4CC[C@@]5(C)[C@H](CC[C@@H]6[C@@H]5C[C@@H](O)[C@]5(C)[C@@H](C7=CC(=O)OC7)CC[C@]65O)C4)O[C@@H]3C)O[C@@H]2C)C[C@H](O)[C@@H]1O` [Digoxin, digoxin] has an EC50 at 48 h (CYP3A4 [2]) of […], an EC50 (PHHs in spheroids [3]) of 5.4 µM and an EC50 at 2 days (in vitro [4]) of 6.4 µM. It also gave an EC50 (PHHs in spheroids [5]) of 8.1 µM, an EC50 [6] of 157 µM and an EC50 (PHHs in liver MPS [7]) of 146 µM. For the same compound, the EC50 at 48 h (CYP3A4 [8]) was […], the EC50 (PHHs in liver MPS [9]) was 41.6 µM and the EC50 at 2 days (in vitro [1]) was 122 µM. The EC50 at 48 h (CYP3A4 [10]) was […], the “R, Spearman correlation of CYP3A4 response relative to liver MPS” value [11] was […] and the EC50 [12] was 102 µM. The “R, Spearman correlation of CYP3A4 response relative to liver MPS” value (PHHs in spheroids [13]) was −0.04.

For `O=C(Cc1ccccc1Nc1c(Cl)cccc1Cl)O[C@@H]1O[C@H](C(=O)O)[C@@H](O)[C@H](O)[C@H]1O` [glucuronidated diclofenac, diclofenac glucuronide], the “Time of incubation to become unstable in solution” value [14] was no more than 2 h and the “Detection in the MPS medium” value (PHHs in the liver MPS; after 48 h, diclofenac dosed) was “not detected”.

For `O=C(O)Cc1ccccc1Nc1c(Cl)cccc1Cl` [diclofenac], the “Concentration in liver MPS culture medium over time” value (PHHs in the liver MPS; 50 µM, 4, 8, 24 and 48 hours) was “decrease over time”.

For `C[C@H]1COc2c(N3CCN(C)CC3)c(F)cc3c(=O)c(C(=O)O)cn1c23` [levofloxacin], the Hepatotoxicity [15] is listed as “does not cause hepatotoxicity”.

In the case of `N[C@@H]1[C@H]2CN(c3nc4c(cc3F)c(=O)c(C(=O)O)cn4-c3ccc(F)cc3F)C[C@@H]12` [trovafloxacin], the Hepatotoxicity in humans [15] is listed as “induces idiosyncratic hepatotoxicity”.
